# In patent US20250074907A1, “INHIBITORS OF SARS-COV-2” (THE TEXAS A&M UNIVERSITY SYSTEM, priority 2021, published 2025):
# Target: main protease (Mpro) of SARS-CoV-2 (Severe acute respiratory syndrome coronavirus 2 (2019-nCoV) (SARS-CoV-2), UniProt P0DTD1)
# Assay: Enzyme IC50 of SARS-CoV-2 inhibitors
# Type: biochemical
# Conditions: Table 1, Example SARS-COV-2 inhibitors
row,Structure (SMILES),IC50 [nM]
1,Cc1cncc(-c2nnc3n2CCN(C(c2ccccc2)c2ccccc2)C3)c1 [PKJ-585],5800

# Same assay, conditions: Table 2, List of compounds
row,Structure (SMILES),IC50 [nM]
1,"Cc1cncc(C(=O)N2CCC(=C3c4ccccc4C[S+]([O-])c4ccccc43)CC2)c1 (centres unmarked) [NZ- 826, (5-methyl-3-pyridyl)-[4-(5-oxo-6H-benzo[c][1]benzothiepin-11-ylidene)-1-piperidyl]methanone]",60 to 70
2,"Cc1cncc(C(=O)N2CCC(=C3c4ccccc4CS(=N)(=O)c4ccccc43)CC2)c1 (centres unmarked) [NZ- 827, [4-(5-imino-5-oxo-6H-benzo[c][1]benzothiepin-11-ylidene)-1-piperidyl]-(5-methyl-3-pyridyl)methanone]",57
3,"O=C(c1cncc2cc[nH]c12)N1CCC(=C2c3ccccc3CSc3ccccc32)CC1 [NZ- 828, [4-(6H-benzo[c][1]benzothiepin-11-ylidene)-1-piperidyl]-(1H-pyrrolo[3,2-c]pyridin-7-yl)methanone]",21 to 33
4,"O=C(c1cncc2cc[nH]c12)N1CCC(=C2c3ccccc3C[S+]([O-])c3ccccc32)CC1 (centres unmarked) [NZ- 829, [4-(5-oxo-6H-benzo[c][1]benzothiepin-11-ylidene)-1-piperidyl]-(1H-pyrrolo[3,2-c]pyridin-7-yl)methanone]",15 to 31
5,"N=S1(=O)Cc2ccccc2C(=C2CCN(C(=O)c3cncc4cc[nH]c34)CC2)c2ccccc21 (centres unmarked) [NZ- 830, [4-(5-imino-5-oxo-6H-benzo[c][1]benzothiepin-11-ylidene)-1-piperidyl]-(1H-pyrrolo [3,2-c]pyridin-7-yl)methanone]",32 to 39
6,"Cc1cncc(C(=O)N2CCN(C3c4ccccc4CS(=O)(=O)c4ccc(F)cc43)CC2)c1 (centres unmarked) [NZ- 831, [4-(2-fluoro-5,5-dioxo-6,11-dihydrobenzo[c][1]benzothiepin-11-yl)piperazin-1-yl]-(5-methyl-3-pyridyl)methanone]",45
7,"O=C(c1cncc2cc[nH]c12)N1CCN(C2c3ccccc3CS(=O)(=O)c3ccc(F)cc32)CC1 (centres unmarked) [NZ- 832, [4-(2-fluoro-5,5-dioxo-6,11-dihydrobenzo[c][1]benzothiepin-11-yl)piperazin-1-yl]-(1H-pyrrolo[3,2-c]pyridin-7-yl)methanone]",18
8,"Cc1cncc(C(=O)N2CCN(C3c4cc(F)ccc4CS(=O)(=O)c4ccccc43)CC2)c1 (centres unmarked) [NZ- 833, [4-(9-fluoro-5,5-dioxo-6,11-dihydrobenzo[c][1]benzothiepin-11-yl)piperazin-1-yl]-(5-methyl-3-pyridyl)methanone]",66 to 130
9,"O=C(c1cncc2cc[nH]c12)N1CCN(C2c3cc(F)ccc3CS(=O)(=O)c3ccccc32)CC1 (centres unmarked) [NZ- 834, [4-(9-fluoro-5,5-dioxo-6,11-dihydrobenzo[c][1]benzothiepin-11-yl)piperazin-1-yl]-(1H-pyrrolo[3,2-c]pyridin-7-yl)methanone]",14 to 47
10,"Cc1cncc(C(=O)N2CCC(=C3c4ccccc4CC(=O)c4sccc43)CC2)c1 [NZ- 835, 2-[1-(5-methylpyridine-3-carbonyl)-4-piperidylidene]-6-thiatricyclo[8.4.0.03,7]tetradeca-1(10),3(7),4,11,13-pentaen-8-one]",27 to 48
11,O=C1Cc2ccccc2C(=C2CCN(C(=O)c3cncc4cc[nH]c34)CC2)c2ccsc21 [NZ- 836],9 to 20
12,O=C(c1cncc2cc[nH]c12)N1CCC(=C2c3ccccc3C3OC3c3ccccc32)CC1 (centres unmarked) [NZ- 838],91
13,O=C1Cc2ccccc2C(=C2CCN(C(=O)c3cncc4cc[nH]c34)CC2)c2ccccc21 [NZ- 839],18
